For the data set, the system named is human PCSK9 locus. The data set is described as follows: Secreted PCSK9 by ELISA (normalized to total cell count) in Huh7 cells transfected with mRNA and gRNA. The data set is classed as cell-based. Conditions: paired with LTRP5-ADD-ZIM3 mRNA; for Secreted PCSK9 / Percent reduction in PCSK9 secretion / Average percent reduction in PCSK9 secretion: Huh7 cells, 6 days post-transfection; for Secreted PCSK9: normalized to total cell count; for Percent reduction in PCSK9 secretion: relative to non-targeting gRNA control; for Average percent reduction in PCSK9 secretion: averaged from the two doses. The procedure:
To assess PCSK9 secretion, seeded Huh7 cells were transfected with mRNA encoding a catalytically-active CasX 676, dXR1, or LTRP5-ADD-ZIM3 and a gRNA with scaffold 316 and spacer targeting either the B2M or PCSK9 locus. Media supernatant was harvested at 6, 18, 36, and 87 days post-transfection to assess level of PCSK9 secretion by ELISA. Levels of PCSK9 secretion were normalized to total cell count. As an additional control, PCSK9 secretion was also measured in the media supernatant harvested from wells containing untreated, naïve cells.
The following three human hepatocyte cancer cell lines were used in this experiment: HepG2 cells, Hep3B cells, and Huh7 cells. ˜15,000 cells of each cell line were seeded per well; the next day, seeded cells were transfected with mRNA encoding a catalytically-active CasX 676, dXR1, or LTRP5-ADD-ZIM3 and a gRNA with scaffold 316 and spacer targeting either the B2M or PCSK9 locus (see Table 23 for specific spacers and sequences). Media supernatant was harvested at 4 days post-transfection to assess level of PCSK9 secretion by ELISA, and levels of PCSK9 secretion were normalized to total cell count and illustrated in FIGS. 11A-11C. Culturing of treated Huh7 cells continued, and media supernatant was harvested at 14 and 27 days post-transfection for measuring PCSK9 secretion by ELISA. As an additional experimental control, PCSK9 secretion was also measured in the media supernatant harvested from wells containing untreated, naïve cells.
To assess PCSK9 secretion, seeded Huh7 cells were co-transfected with mRNA encoding for LTRP5-ADD-ZIM3 and a gRNA with scaffold 316 and spacer targeting the PCSK9 locus using Lipofectamine™ 3000. Two doses of total RNA input at a 2:1 mass ratio of mRNA to gRNA were used for screening: 50 ng mRNA: 25 ng gRNA and 25 ng mRNA: 12.5 ng gRNA. Media supernatant was harvested at 6 days post-transfection to assess level of PCSK9 secretion by ELISA (Table 74). Levels of PCSK9 secretion were normalized to total cell count. As an additional control, PCSK9 secretion was also measured in the media supernatant harvested from cells transfected with mRNA encoding for mScarlet.

20 substances from patent US12551573B2, “Compositions and methods for the targeting of PCSK9” (Scribe Therapeutics Inc., priority 2022, dated 2026) can be followed below.

Take “GGAAAGCUGAGCUUGUGCCU (listed as RNA, chemistry not given here) [spacer 6.135, Promoter]”: the “Average percent reduction in PCSK9 secretion” value (“Average percent reduction” for short) is reported as 53.12%. For the same substance, where the note is “25 ng mRNA:12.5 ng gRNA”, the “Secreted PCSK9” value is recorded as 44.59 ng/mL and the “Percent reduction in PCSK9 secretion” value stood at 37.42%. Besides, under “50 ng mRNA:25 ng gRNA”, the “Secreted PCSK9” value is 25.66 ng/mL and the “Percent reduction in PCSK9 secretion” value came to 68.82%.
For “GGAAGGGCUGUCGAUACUGG (listed as RNA, chemistry not given here) [spacer 6.121, Promoter]”, in that order: 56.73%, 37.13 ng/mL, 47.89%, 28.33 ng/mL and 65.57%.
On the same counts, the results for “GGAGCAGGGCGCGUGAAGGG (listed as RNA, chemistry not given here) [spacer 6.158, Exon 1]” are 72.03%, 31.72 ng/mL, 55.48%, 9.39 ng/mL and 88.59%.
In the case of “GGGUCUGAGCCUGGAGGAGU (listed as RNA, chemistry not given here) [spacer 6.157, Exon 1]”, the “Average percent reduction” value came out at 69.78%. Under “25 ng mRNA:12.5 ng gRNA”, the “Secreted PCSK9” value turned out to be 32.4 ng/mL and the “Percent reduction in PCSK9 secretion” value stood at 54.53%. In addition, for the setting “50 ng mRNA:25 ng gRNA”, the “Secreted PCSK9” value was found to be 12.32 ng/mL and the “Percent reduction in PCSK9 secretion” value was found to be 85.03%. In addition, where the note is “Huh7, scaffold 316, days 4, 14, 27”, the “repression of PCSK9 secretion by spacer” value is “most effective repression of PCSK9 secretion”.
As to “GUGCUCGGGUGCUUCGGCCA (listed as RNA, chemistry not given here) [spacer 6.5, Exon 1]”, the “Average percent reduction” value is reported as 5.64%. For the same substance, under “25 ng mRNA:12.5 ng gRNA”, the “Secreted PCSK9” value is given as 76.37 ng/mL and the “Percent reduction in PCSK9 secretion” value is listed as 7.19%. For the setting “50 ng mRNA:25 ng gRNA”, the “Secreted PCSK9” value was 67.08 ng/mL and the “Percent reduction in PCSK9 secretion” value came to 18.47%.
For “GUGGGAAGGUUCGCGGGGUU (listed as RNA, chemistry not given here) [spacer 6.168, Intron 1]”, in that order: 52.62%, 50.96 ng/mL, 28.47%, 19.1 ng/mL and 76.78%.
For the substance “GUGGGCAGCGAGGAGUCCAC (listed as RNA, chemistry not given here) [spacer 6.144, Promoter]”, the “Average percent reduction” value is recorded as 65.41%. Moreover, where the note is “25 ng mRNA:12.5 ng gRNA”, the “Secreted PCSK9” value is listed as 29 ng/mL and the “Percent reduction in PCSK9 secretion” value came to 59.29%. For the setting “50 ng mRNA:25 ng gRNA”, the “Secreted PCSK9” value came to 23.42 ng/mL and the “Percent reduction in PCSK9 secretion” value came to 71.53%.
As to “GUGUUUCCUGGGUCCACCUU (listed as RNA, chemistry not given here) [spacer 6.147, Promoter]”, the “Average percent reduction” value came to 41.15%. Also, for the setting “25 ng mRNA:12.5 ng gRNA”, the “Secreted PCSK9” value was determined as 37.43 ng/mL and the “Percent reduction in PCSK9 secretion” value is 47.46%. For the same substance, for the setting “50 ng mRNA:25 ng gRNA”, the “Secreted PCSK9” value is 53.6 ng/mL and the “Percent reduction in PCSK9 secretion” value is recorded as 34.85%.
For the substance “GUUAAUGUUUAAUCAGAUAG (listed as RNA, chemistry not given here) [spacer 6.153, Promoter]”, the “Average percent reduction” value stood at 5.27%. Moreover, for the setting “25 ng mRNA:12.5 ng gRNA”, the “Secreted PCSK9” value came to 86.58 ng/mL and the “Percent reduction in PCSK9 secretion” value was 21.52%. Besides, for the setting “50 ng mRNA:25 ng gRNA”, the “Secreted PCSK9” value is 73.23 ng/mL and the “Percent reduction in PCSK9 secretion” value was 10.99%.
Regarding “Non-targeting (guide CGAGACGTAATTACGTCTCG; chemistry not given here)”, the “Average percent reduction” value was 0%. For the same substance, under “25 ng mRNA:12.5 ng gRNA”, the “Secreted PCSK9” value amounted to 71.24 ng/mL and the “Percent reduction in PCSK9 secretion” value amounted to 0%. Besides, under “50 ng mRNA:25 ng gRNA”, the “Secreted PCSK9” value worked out at 82.28 ng/mL and the “Percent reduction in PCSK9 secretion” value came to 0%.
In the case of “TG-06-002 (guide ACCGCUGCGCCAAGGUGCGG; listed as RNA, chemistry not given here)”, the “Average percent reduction” value is recorded as 8.16%. In addition, for the setting “25 ng mRNA:12.5 ng gRNA”, the “Secreted PCSK9” value came to 83.15 ng/mL and the “Percent reduction in PCSK9 secretion” value is recorded as 16.71%. Also, where the note is “50 ng mRNA:25 ng gRNA”, the “Secreted PCSK9” value is 81.95 ng/mL and the “Percent reduction in PCSK9 secretion” value was found to be 0.4%.
For “TG-06-249 (guide AAACCAAAUCGGAACCCACU; listed as RNA, chemistry not given here)”, in that order: 10.89%, 82.36 ng/mL, 15.61%, 87.36 ng/mL and 6.18%.
For the substance “TG-06-250 (guide GAUUUGGUUUGGAAAACAUG; listed as RNA, chemistry not given here)”, the “Average percent reduction” value came to 9.26%. Under “25 ng mRNA:12.5 ng gRNA”, the “Secreted PCSK9” value was determined as 80.42 ng/mL and the “Percent reduction in PCSK9 secretion” value turned out to be 12.87%. Further, where the note is “50 ng mRNA:25 ng gRNA”, the “Secreted PCSK9” value worked out at 86.92 ng/mL and the “Percent reduction in PCSK9 secretion” value was 5.64%.
Take “TG-06-251 (guide CUCCAGGCCCUCCACCCUCC; listed as RNA, chemistry not given here)”: the “Average percent reduction” value is 46.32%. Further, where the note is “25 ng mRNA:12.5 ng gRNA”, the “Secreted PCSK9” value stood at 44.62 ng/mL and the “Percent reduction in PCSK9 secretion” value was 37.37%. Moreover, under “50 ng mRNA:25 ng gRNA”, the “Secreted PCSK9” value is 36.8 ng/mL and the “Percent reduction in PCSK9 secretion” value is recorded as 55.28%.
As for “TG-06-342 (guide AAUUACAGGCAACAGGAAGG; listed as RNA, chemistry not given here)”, the “Average percent reduction” value is on record as 15.87%. Also, for the setting “25 ng mRNA:12.5 ng gRNA”, the “Secreted PCSK9” value worked out at 75.23 ng/mL and the “Percent reduction in PCSK9 secretion” value amounted to 5.6%. Further, for the setting “50 ng mRNA:25 ng gRNA”, the “Secreted PCSK9” value is listed as 51.55 ng/mL and the “Percent reduction in PCSK9 secretion” value was found to be 37.34%.
“TG-06-343 (guide CCCCAUGUAAGAGAGGAAGU; listed as RNA, chemistry not given here)”: the “Average percent reduction” value came to 8.82%. Further, for the setting “25 ng mRNA:12.5 ng gRNA”, the “Secreted PCSK9” value is 75.55 ng/mL and the “Percent reduction in PCSK9 secretion” value was 6.04%. In addition, for the setting “50 ng mRNA:25 ng gRNA”, the “Secreted PCSK9” value amounted to 62.8 ng/mL and the “Percent reduction in PCSK9 secretion” value turned out to be 23.67%.
Regarding “TG-06-344 (guide CAGUUUCUGCCUCGCCGCGG; listed as RNA, chemistry not given here)”, the “Average percent reduction” value is 3.64%. Moreover, under “25 ng mRNA:12.5 ng gRNA”, the “Secreted PCSK9” value turned out to be 76.43 ng/mL and the “Percent reduction in PCSK9 secretion” value is on record as 7.28%. Under “50 ng mRNA:25 ng gRNA”, the “Secreted PCSK9” value came out at 82.29 ng/mL and the “Percent reduction in PCSK9 secretion” value was 0.01%.
For “TG-06-345 (guide GCCUCGCCGCGGCACAGGUG; listed as RNA, chemistry not given here)”, in that order: 9.49%, 85.68 ng/mL, 20.26%, 81.22 ng/mL and 1.28%.
For the substance “TG-06-346 (guide CCCACCUGUGCCGCGGCGAG; listed as RNA, chemistry not given here)”, the “Average percent reduction” value was 4.09%. Besides, for the setting “25 ng mRNA:12.5 ng gRNA”, the “Secreted PCSK9” value is 81.63 ng/mL and the “Percent reduction in PCSK9 secretion” value turned out to be 14.58%. Also, under “50 ng mRNA:25 ng gRNA”, the “Secreted PCSK9” value is recorded as 77.02 ng/mL and the “Percent reduction in PCSK9 secretion” value was found to be 6.39%.
As for “TG-06-347 (guide CUCCUUCACCCACCUGUGCC; listed as RNA, chemistry not given here)”, the “Average percent reduction” value amounted to 47.49%. In addition, for the setting “25 ng mRNA:12.5 ng gRNA”, the “Secreted PCSK9” value stood at 51.83 ng/mL and the “Percent reduction in PCSK9 secretion” value stood at 27.24%. For the same substance, where the note is “50 ng mRNA:25 ng gRNA”, the “Secreted PCSK9” value was determined as 26.55 ng/mL and the “Percent reduction in PCSK9 secretion” value is 67.73%.
